System: 997726-040-R-J2-PDC tumor spheroids, viability
Experiment: Anticancer human tumor 997726-040-R-J2-PDC patient-derived squamous cell lung carcinoma cell line growth inhibition [PI3K]
Conditions: spheroids with HUVEC and MSC; for IC50: curve of first compound; for viability, T/C: stronger effect = lower value; active means viability on the fitted dose curve at most 10% of control; inactive means the rest
Text: Combinatorial screen of targeted agents with the PI3K inhibitors inavolisib, alpelisib, duvelisib, and copanlisib in multi-cell type tumor spheroids
A high-throughput screen of multi-cell type tumor spheroids was designed to identify active combinations of targeted small molecules and PI3K pathway inhibitors. Complex spheroids include a stromal component modeled by human endothelial cells (HUVEC) and fibroblasts modeled by human mesenchymal stem cells (MSCs). The concentration ranges selected for each drug and investigational agent were based upon clinically achievable concentrations if the clinical Cmax of the agent was known.
Compounds. The drugs and investigational agents: inavolisib (NSC800729), alpelisib (NSC765974), duvelisib (NSC772469), copanlisib (NSC816437), ipatasertib (NSC767898), afuresertib (NSC778305), talazoparib (NSC767125), sapanisertib (NSC764658), selumetinib (NSC741078), tovorafenib (DAY101, NSC766906), vemurafenib (NSC761431), ravoxertinib (NSC781343), sotorasib (NSC818433), MRTX1133 (NSC 836407), abemaciclib (NSC 768073), palbociclib (NSC758247), venetoclax (NSC 766270), SY5609 (NSC837396), enzalutamide (NSC755605), and darolutamide (NSC825331), were obtained from the National Cancer Institute (NCI) Developmental Therapeutics Program Chemical Repository. The FDA-approved anticancer drug set is available from the NCI Developmental Therapeutics Program. […] The stock solutions were prepared in dimethyl sulfoxide (DMSO, Sigma-Aldrich, St. Louis, MO, cat. D2650) at 800-fold the tested concentration and stored at -70 degrees C prior to their use. All drugs and investigational agents were tested over a range starting from a high concentration at or near the clinical Cmax and decreasing in half-log increments. If the clinical Cmax for an agent had not been determined, the highest concentration tested was 10 microM.
Cell Culture. All cells were maintained in an incubator at 37 degrees C and 5% CO2 with 95% humidity. The PDC lines were cultured according to standard operating procedures established by the NCI PDMR (https://pdmr.cancer.gov/sops/default.htm). All PDCs were thawed and cultured in Matrigel-coated flasks prepared with a working solution of 1X Ham's F-12 nutrient mix, without supplementation (Invitrogen, Waltham, MA, cat. 11765054), 100 U/mL penicillin-streptomycin (Invitrogen, cat. 15140122), and 2.5% Matrigel (Corning Inc., Corning, NY, cat. 354248) for the first three passages. The 354836-022-R-J1-PDC, 475296-252-R-J1-PDC, and 997726-040-R-J2-PDC lines were cultured in 6A media, which includes advanced DMEM/F-12 (Thermo Fisher Scientific, cat. 12634028), 10 mM HEPES (Thermo Fisher Scientific, cat. 15630080), 1X GlutaMAX supplement (Thermo Fisher Scientific, cat. 35050061), 0.1 mg/mL primocin (InvivoGen, San Diego, CA, cat. ant-pm-2), 10% defined fetal bovine serum, heat inactivated (HyClone Laboratories Inc., Logan, UT, cat. SH30070.03HI), 50% L-WRN conditioned media (ATCC, cat. CRL-3276), 1.25 mM N-Acetyl-L-cysteine (Sigma-Aldrich, cat. A9165), 10 mM nicotinamide (Sigma-Aldrich, cat. N0636), 1X B-27 supplement (Thermo Fisher Scientific, cat. 17504044), 1X N-2 supplement (Thermo Fisher Scientific, cat. 17502048), and 10 microM Y-27632 dihydrochloride (Tocris Bioscience, Bristol, United Kingdom, cat. 1254). The 624824-186-R-J2-PDC line was cultured in 6C/Colon 1B media, which includes all 6A media components plus 50 ng/mL human EGF recombinant protein (Thermo Fisher Scientific, cat. PHG0311). […]

[1] = second compound 0.00316 µM, first compound 0.000316 µM
[2] = second compound 0.00316 µM, first compound 0.001 µM
[3] = second compound 0.00316 µM, first compound 0.00316 µM
[4] = second compound 0.00316 µM, first compound 0.01 µM
[5] = second compound 0.00316 µM, first compound 0.0316 µM
[6] = second compound 0.00316 µM, first compound 0.1 µM
[7] = second compound 0.01 µM, first compound 0.000316 µM
[8] = second compound 0.01 µM, first compound 0.001 µM
[9] = second compound 0.01 µM, first compound 0.00316 µM
[10] = second compound 0.01 µM, first compound 0.01 µM
[11] = second compound 0.01 µM, first compound 0.0316 µM
[12] = second compound 0.01 µM, first compound 0.1 µM
[13] = second compound 0.0316 µM, first compound 0.000316 µM
[14] = second compound 0.0316 µM, first compound 0.001 µM
[15] = second compound 0.0316 µM, first compound 0.00316 µM
[16] = second compound 0.0316 µM, first compound 0.01 µM
[17] = second compound 0.0316 µM, first compound 0.0316 µM
[18] = second compound 0.0316 µM, first compound 0.1 µM
[19] = second compound 0.1 µM, first compound 0.000316 µM
[20] = second compound 0.1 µM, first compound 0.001 µM
[21] = second compound 0.1 µM, first compound 0.00316 µM
[22] = second compound 0.1 µM, first compound 0.01 µM
[23] = second compound 0.1 µM, first compound 0.0316 µM
[24] = second compound 0.1 µM, first compound 0.1 µM
[25] = second compound 0.316 µM, first compound 0.000316 µM
[26] = second compound 0.316 µM, first compound 0.001 µM
[27] = second compound 0.316 µM, first compound 0.00316 µM
[28] = second compound 0.316 µM, first compound 0.01 µM
[29] = second compound 0.316 µM, first compound 0.0316 µM
[30] = second compound 0.316 µM, first compound 0.1 µM
[31] = second compound 1 µM, first compound 0.000316 µM
[32] = second compound 1 µM, first compound 0.001 µM
[33] = second compound 1 µM, first compound 0.00316 µM
[34] = second compound 1 µM, first compound 0.01 µM
[35] = second compound 1 µM, first compound 0.0316 µM
[36] = second compound 1 µM, first compound 0.1 µM
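Further: spheroids exposed to compounds for seven days before readout.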

CC(C)n1nc(-c2ccc3oc(N)nc3c2)c2c(N)ncnc21 + COc1c(OCCCN2CCOCC2)ccc2c3n(c(=NC(=O)c4cnc(N)nc4)nc12)CCN3
< 0.316 nM: IC50 (second compound 0.0316 µM) | IC50 (second compound 0.1 µM) | IC50 (second compound 0.316 µM) | IC50 (second compound 1 µM)
2.97 nM: IC50 (second compound 0.01 µM)
inactive: viability, T/C [1] 74% | viability, T/C [2] 76.6% | viability, T/C [3] 70% | viability, T/C [4] 61.1% | viability, T/C [5] 39.9% | viability, T/C [6] 16.4% | viability, T/C [7] 57.2% | viability, T/C [8] 57.9% | viability, T/C [9] 45.5% | viability, T/C [10] 42.2% | viability, T/C [11] 33.2% | viability, T/C [12] 13.1% | viability, T/C [13] 32.4% | viability, T/C [14] 35.5% | viability, T/C [15] 32.5% | viability, T/C [16] 29.6% | viability, T/C [17] 23.7% | viability, T/C [18] 5.54% | viability, T/C [19] 25.5% | viability, T/C [20] 22.1% | viability, T/C [21] 21.3% | viability, T/C [22] 16.3%
18.2 nM: IC50 (second compound 0.00316 µM)
active: viability, T/C [23] 9.54% | viability, T/C [24] 2.12% | viability, T/C [25] 5.5% | viability, T/C [26] 4.4% | viability, T/C [27] 4.05% | viability, T/C [28] 2.91% | viability, T/C [29] 1.89% | viability, T/C [30] 1.02% | viability, T/C [31] 1.83% | viability, T/C [32] 1.51% | viability, T/C [33] 1.18% | viability, T/C [34] 1.56% | viability, T/C [35] 1.91% | viability, T/C [36] 0.84%

CC(C)n1nc(-c2ccc3oc(N)nc3c2)c2c(N)ncnc21 + CC(Nc1ccc2c(c1)OCCn1cc(N3C(=O)OCC3C(F)F)nc1-2)C(N)=O
inactive: viability, T/C [1] 79% | viability, T/C [2] 88.2% | viability, T/C [3] 73.5% | viability, T/C [4] 59.8% | viability, T/C [5] 38.9% | viability, T/C [7] 74.8% | viability, T/C [8] 68.5% | viability, T/C [9] 71.3% | viability, T/C [10] 59.1% | viability, T/C [11] 37.4% | viability, T/C [13] 54.6% | viability, T/C [14] 61.3% | viability, T/C [15] 48.7% | viability, T/C [16] 38.6% | viability, T/C [17] 26.6% | viability, T/C [19] 44.2% | viability, T/C [20] 39.5% | viability, T/C [21] 42.5% | viability, T/C [22] 33% | viability, T/C [23] 20.9% | viability, T/C [25] 32.5% | viability, T/C [26] 33.9% | viability, T/C [27] 27.9% | viability, T/C [28] 24.9% | viability, T/C [29] 13.5% | viability, T/C [31] 29.1% | viability, T/C [32] 26.9% | viability, T/C [33] 21.4% | viability, T/C [34] 20.6% | viability, T/C [35] 9.52%
17.4 nM: IC50 (second compound 0.00316 µM)
< 0.316 nM: IC50 (second compound 0.1 µM) | IC50 (second compound 0.316 µM) | IC50 (second compound 1 µM)
16.5 nM: IC50 (second compound 0.01 µM)
active: viability, T/C [6] 7.14% | viability, T/C [12] 6.85% | viability, T/C [18] 6.47% | viability, T/C [24] 4.52% | viability, T/C [30] 3.29% | viability, T/C [36] 2.78%
3.27 nM: IC50 (second compound 0.0316 µM)
